Legend:
KG-1 = test: cell viability (% survival relative to DMSO control, bortezomib = 0%); higher = less cytotoxic; settings: 72 h
Summary of the method: (§1)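 Fifteen myeloid leukaemia cell lines (10 AML, 5 CML) were seeded at a density titrated to the linear growth range. They went into 384-well plates with compounds pre-printed at 1, 10, 100, 1000 or 10000 nM in duplicate. After 72 h at 37 °C with 5% CO2, viability was read by CellTiter-Glo luminescence. Values are percent survival, with vehicle set to 100% and a 10 µM positive control to 0%, averaged over the duplicates.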

THP-1 = test: as above; settings: 72 h
Summary of the method: as §1

Row | SMILES | cell viability (KG-1; 1 nM) | cell viability (KG-1; 10 nM) | cell viability (KG-1; 100 nM) | cell viability (KG-1; 1000 nM) | cell viability (KG-1; 10000 nM) | cell viability (THP-1; 1 nM) | cell viability (THP-1; 10 nM) | cell viability (THP-1; 100 nM) | cell viability (THP-1; 1000 nM) | cell viability (THP-1; 10000 nM)
1 | C#Cc1cnc(O)nc1O [Eniluracil] | 103% | 117% | 107% | 100% | 114% | 97.4% | 102% | 109% | 110% | 102%
2 | O=C(O)C(Cl)Cl [Dichloroacetate] | 108% | 94.6% | 91.5% | 93% | 103% | 100% | 98% | 103% | 95.8% | 102%
3 | CCCc1nn(C)c2c(O)nc(-c3cc(S(=O)(=O)N4CCN(C)CC4)ccc3OCC)nc12 [Sildenafil] | 95.9% | 97% | 95.7% | 105% | 108% | 90.3% | 99.4% | 97.1% | 99.8% | 101%
4 | COc1c(C)c2c(c(O)c1C/C=C(\C)CCC(=O)O)C(=O)OC2 [Mycophenolic acid] | 101% | 104% | 94.5% | 70.6% | 18.5% | 112% | 95.7% | 103% | 97.5% | 59.2%
5 | Cc1c(-c2ccccc2)oc2c(C(=O)OCCN3CCCCC3)cccc2c1=O.Cl [Flavoxate] | 94.7% | 108% | 94.8% | 97% | 106% | 93.5% | 97.7% | 93.5% | 96.6% | 109%
6 | CC(Cc1ccc(O)c(O)c1)C(C)Cc1ccc(O)c(O)c1 (stereo not given) [Masoprocol] | 99% | 109% | 108% | 94.8% | 48.2% | 95.4% | 98.4% | 96.2% | 93.4% | 85.9%
7 | N[C@](CCCCB(O)O)(CCN1CCCCC1)C(=O)O [Arginase inhibitor 1] | 97.2% | 84.2% | 96.6% | 100% | 92% | 105% | 88.6% | 101% | 99% | 102%
8 | [N-]=[N+]=CC(=O)CC[C@H](N)C(=O)O [6-Diazo-5-oxo-L-norleucine] | 110% | 95.2% | 101% | 117% | 98.9% | 98.1% | 96.7% | 100% | 102% | 106%
9 | O=C(COc1ccc(C(=O)c2ccccc2)cc1)NC1CCN(Cc2ccccc2)CC1 [AdipoRon] | 93.9% | 107% | 104% | 91.9% | 59.6% | 96.2% | 98.8% | 102% | 91.6% | 104%
10 | CCN(CC)CCN(Cc1ccc(-c2ccc(C(F)(F)F)cc2)cc1)C(=O)Cn1c(SCc2ccc(F)cc2)nc(=O)c2c1CCC2 [Darapladib] | 104% | 108% | 93.6% | 87.8% | 0.0114% | 107% | 98.8% | 100% | 96.3% | -0.44%
11 | O=C1Nc2ccccc2/C1=C\NCCc1ccc(O)c(O)c1 [AC1NZZMF] | 112% | 106% | 104% | 95.7% | 78.7% | 108% | 103% | 100% | 108% | 79.9%
12 | CCOC(=O)[C@@]1(CCCCCCOc2ccc(Cl)cc2)CO1 [Etomoxir] | 94.3% | 99.8% | 112% | 94.5% | 91.1% | 98.3% | 105% | 97.3% | 96.4% | 102%
13 | Cc1ccc(S(=O)(=O)NC2c3ccccc3Oc3ccccc32)cc1 [AH-7614] | 100% | 95.9% | 102% | 95.4% | 104% | 96.9% | 96.7% | 99% | 96.7% | 100%
14 | O=P(O)(O)C(O)(Cn1ccnc1)P(=O)(O)O [Zoledronic acid] | 99.3% | 106% | 111% | 103% | 108% | 104% | 105% | 91.5% | 89.1% | 99.5%
15 | c1ccc2c(c1)OCC(=C1NCCN1)O2 [Idazoxan] | 104% | 112% | 93.6% | 96.4% | 85.9% | 104% | 107% | 83.3% | 91.4% | 103%
16 | C[C@]12CC[C@H](O)CC1=CC[C@@H]1[C@@H]2CC[C@]2(C)C(c3cccnc3)=CC[C@@H]12 [Abiraterone] | 115% | 101% | 94.3% | 101% | 91.8% | 99.4% | 102% | 104% | 113% | 108%
17 | Cc1coc2c1C(=O)C(=O)c1c-2ccc2c(C)cccc12 [Tanshinone I] | 113% | 99.9% | 98% | 99.3% | 77.6% | 109% | 102% | 98.9% | 103% | 90.1%
18 | O=C(O)C(S)=Cc1c[nH]c2ccc(F)cc12 | 101% | 95.1% | 106% | 101% | 66.3% | 99.1% | 97.6% | 98% | 113% | 101%
19 | CC12CCC(O)CC1CCC1C2CCC2(C)C(C3=CC(=O)OC3)CCC12O (stereo not given) [Digitoxigenin] | 128% | 113% | 87.5% | 6.15% | -1.05% | 108% | 104% | 77% | 18.9% | -0.987%
20 | Sc1ncnc2nc[nH]c12 [6-mercaptopurine] | 112% | 103% | 93.4% | 97.9% | 89.4% | 98.3% | 106% | 98.1% | 90.6% | 85.2%
21 | C1CCc2nnc(C34CC5CC(CC(C5)C3)C4)n2CC1 [MERCK-544] | 101% | 106% | 98.5% | 95.2% | 105% | 102% | 107% | 93.7% | 102% | 91.1%
22 | Cl.OC[C@H]1NC[C@@H](O)[C@@H](O)[C@@H]1O [1-Deoxymannojirimycin hydrochloride] | 105% | 92.3% | 90.6% | 112% | 94.1% | 107% | 91% | 98% | 102% | 91.9%
